# Test results as given in patent US8592415B2, “Selective kinase inhibitors” (Reaction Biology Corp., priority 2009, dated 2013).
# Assays:
# Assay type in all cases: biochemical
# [1] = target: JAK3 (Homo sapiens (Human), UniProt P52333); assay: In vitro JAK kinase enzymatic assay (JAK3)
# Description: (§1) The JAK3 kinase is recombinant human protein (catalytic domain, amino acids 781-1124 with GST-tag), expressed in insect cells (Invitrogen Catalog PV3855). The substrate is poly-glutamic acid-tyrosin peptide, Poly-(GT) (4:1) (Sigma-Aldrich, catalog P7244). [γ-^33P]-ATP is purchased from Perkin Elmer (catalog NEG602H001MC) (EasyTides). Kinase reaction buffer is 100 mM HEPES (pH 7.5), 20 mM MgCl2, 2 mM EGTA, 0.02% Brij 35. The JAK1 (Invitrogen Catalog PV4774), JAK2 (Invitrogen Catalog PV4210) and TYK2 Invitrogen Catalog PV4790) enzymatic assays are performed in the similar way. JAK1 and JAK2 substrate is Poly-(GT) (4:1), but TYK2 substrate is peptide with sequences of […]. The reaction is carried for 2 hours at room temperature. After the reactions are finished or stopped, portion or all the reaction mixtures are transferred onto filter paper P81 Phosphocellulose paper (Whatman catalog 3698-915) for binding the final radioisotope labeled products. The unreacted phosphate are washed away without interfering with the detection of real phosphorylated products. The final product can be detected by instruments such as scintillation counter, top counter or phosphoimager. The enzymatic assays can also performed in assays described those described in the art [e.g., Ma H et al, Expert Opin. Drug Discov. 3, 607-621 (2008); Olive D M, Expert Rev Proteomics, 1, 327-341 (2004)].
# (§2) Signal=Bottom+(Top−Bottom)/(1+10^((Log(IC50)−Log [I])*Hill Slope) Bottom and Top refer to the post and pre-transition baselines, respectively.
# [2] = target: JAK2; assay: In vitro JAK kinase enzymatic assay (JAK2)
# Description: as §1, with “The” for “The JAK3 kinase is recombinant human protein (catalytic domain, amino acids 781-1124 with GST-tag), expressed in insect cells (Invitrogen Catalog PV3855). The”, “After the reactions are finished or stopped, portion or all the reaction mixtures are transferred onto filter paper P81 Phosphocellulose paper (Whatman catalog 3698-915) for binding the final radioisotope labeled products.” left out, “Discov.” for “Discov. 3, 607-621 (2008); Olive D M, Expert Rev Proteomics, 1, 327-341 (2004)].”
# as §2
# [3] = target: TYK2 (Homo sapiens (Human), UniProt P29597); assay: In vitro JAK kinase enzymatic assay (TYK2)
# Description: as §1, §2
# [4] = target: JAK1 (Homo sapiens, UniProt P23458); assay: In vitro JAK kinase enzymatic assay (JAK1)
# Description: as §1, §2
# [5] = target: JAK2 (Homo sapiens, UniProt O60674); assay: In vitro JAK kinase enzymatic assay (JAK2)
# Description: as §1, with “The” for “The JAK3 kinase is recombinant human protein (catalytic domain, amino acids 781-1124 with GST-tag), expressed in insect cells (Invitrogen Catalog PV3855). The”, “After the reactions are finished or stopped, portion or all the reaction mixtures are transferred onto filter paper P81 Phosphocellulose paper (Whatman catalog 3698-915) for binding the final radioisotope labeled products.” left out, “Discov.” for “Discov. 3, 607-621 (2008); Olive D M, Expert Rev Proteomics, 1, 327-341 (2004)].”
# as §2
# Chain of JAK2 (Homo sapiens, UniProt O60674) (O60674 whole entry, looked up, the tested form may be a part): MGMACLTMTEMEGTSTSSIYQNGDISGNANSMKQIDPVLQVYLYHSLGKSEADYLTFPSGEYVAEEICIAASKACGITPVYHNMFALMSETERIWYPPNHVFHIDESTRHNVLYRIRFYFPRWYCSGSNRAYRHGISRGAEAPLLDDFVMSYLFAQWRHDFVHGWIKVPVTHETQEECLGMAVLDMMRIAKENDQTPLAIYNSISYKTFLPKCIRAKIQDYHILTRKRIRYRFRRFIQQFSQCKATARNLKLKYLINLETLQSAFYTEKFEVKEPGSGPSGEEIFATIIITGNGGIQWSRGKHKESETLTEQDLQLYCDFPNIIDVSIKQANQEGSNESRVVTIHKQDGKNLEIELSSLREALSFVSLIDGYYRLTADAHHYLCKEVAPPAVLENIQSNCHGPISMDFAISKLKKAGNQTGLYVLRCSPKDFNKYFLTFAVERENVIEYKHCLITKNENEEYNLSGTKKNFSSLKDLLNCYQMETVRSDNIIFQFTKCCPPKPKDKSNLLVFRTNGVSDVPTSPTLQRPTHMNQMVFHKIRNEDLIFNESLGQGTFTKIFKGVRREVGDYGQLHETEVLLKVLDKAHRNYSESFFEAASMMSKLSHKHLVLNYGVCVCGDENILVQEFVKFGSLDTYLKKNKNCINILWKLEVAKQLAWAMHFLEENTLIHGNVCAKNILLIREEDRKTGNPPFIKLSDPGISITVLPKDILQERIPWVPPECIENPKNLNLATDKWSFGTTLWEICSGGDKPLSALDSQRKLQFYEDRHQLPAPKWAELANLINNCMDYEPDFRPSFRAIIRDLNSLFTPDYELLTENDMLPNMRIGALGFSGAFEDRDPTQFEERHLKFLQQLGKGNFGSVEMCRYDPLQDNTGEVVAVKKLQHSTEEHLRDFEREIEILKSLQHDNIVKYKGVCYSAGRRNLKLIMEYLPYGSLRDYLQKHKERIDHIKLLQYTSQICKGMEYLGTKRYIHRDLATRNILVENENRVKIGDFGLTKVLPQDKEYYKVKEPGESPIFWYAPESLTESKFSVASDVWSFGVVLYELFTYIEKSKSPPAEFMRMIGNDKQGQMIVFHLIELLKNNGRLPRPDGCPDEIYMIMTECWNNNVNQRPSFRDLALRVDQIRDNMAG
# Chain of TYK2 (P29597 whole entry): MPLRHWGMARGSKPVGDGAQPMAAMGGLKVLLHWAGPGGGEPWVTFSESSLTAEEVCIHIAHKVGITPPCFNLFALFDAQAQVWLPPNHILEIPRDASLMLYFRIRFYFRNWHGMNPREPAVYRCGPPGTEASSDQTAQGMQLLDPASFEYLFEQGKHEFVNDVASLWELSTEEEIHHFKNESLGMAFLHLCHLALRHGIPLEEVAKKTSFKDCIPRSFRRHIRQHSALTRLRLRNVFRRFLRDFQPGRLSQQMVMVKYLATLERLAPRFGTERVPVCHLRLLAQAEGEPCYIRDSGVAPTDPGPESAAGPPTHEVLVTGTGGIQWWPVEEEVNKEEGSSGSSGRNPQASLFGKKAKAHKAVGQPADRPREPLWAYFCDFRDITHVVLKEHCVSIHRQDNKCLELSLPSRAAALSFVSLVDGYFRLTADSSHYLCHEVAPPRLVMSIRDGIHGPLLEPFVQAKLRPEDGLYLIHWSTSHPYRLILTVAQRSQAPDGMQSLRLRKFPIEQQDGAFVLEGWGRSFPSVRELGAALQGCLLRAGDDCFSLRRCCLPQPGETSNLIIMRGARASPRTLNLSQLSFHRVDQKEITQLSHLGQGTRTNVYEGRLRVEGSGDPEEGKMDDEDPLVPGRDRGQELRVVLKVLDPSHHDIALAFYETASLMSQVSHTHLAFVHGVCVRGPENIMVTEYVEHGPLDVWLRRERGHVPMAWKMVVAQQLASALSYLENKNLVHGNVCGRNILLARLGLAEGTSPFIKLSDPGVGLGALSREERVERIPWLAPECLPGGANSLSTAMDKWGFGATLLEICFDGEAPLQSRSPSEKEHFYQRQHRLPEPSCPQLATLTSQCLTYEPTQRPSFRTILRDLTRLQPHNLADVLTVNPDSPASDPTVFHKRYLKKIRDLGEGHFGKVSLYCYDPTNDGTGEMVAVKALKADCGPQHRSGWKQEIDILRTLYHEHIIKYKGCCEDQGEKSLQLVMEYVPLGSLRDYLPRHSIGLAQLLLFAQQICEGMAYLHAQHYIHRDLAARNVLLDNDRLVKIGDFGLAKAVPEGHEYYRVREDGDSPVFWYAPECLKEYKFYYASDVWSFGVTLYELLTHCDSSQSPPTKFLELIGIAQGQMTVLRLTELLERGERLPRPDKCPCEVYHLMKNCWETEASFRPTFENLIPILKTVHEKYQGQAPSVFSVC
# Chain of JAK3 (P52333 781-1124): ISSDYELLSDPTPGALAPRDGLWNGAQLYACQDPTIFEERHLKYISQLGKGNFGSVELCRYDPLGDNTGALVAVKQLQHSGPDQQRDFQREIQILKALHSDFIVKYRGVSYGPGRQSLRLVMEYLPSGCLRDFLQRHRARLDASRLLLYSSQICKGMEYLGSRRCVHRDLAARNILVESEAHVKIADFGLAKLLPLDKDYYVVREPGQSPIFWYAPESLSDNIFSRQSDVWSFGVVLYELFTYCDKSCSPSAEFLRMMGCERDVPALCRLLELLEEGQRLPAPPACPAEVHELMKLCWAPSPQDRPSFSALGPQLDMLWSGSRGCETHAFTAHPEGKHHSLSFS
Compound,IC50 [1],IC50 [2],IC50 [3],IC50 [4],IC50 [5]
"O=C(Cn1cncn1)Nc1cccc(-c2cnc3ccccc3n2)c1 [Example 7, N-[3-(quinoxalin-2-yl)phenyl]-2-(1H-1,2,4-triazol-1-yl)acetamide]",> 50 µM,> 50 µM,> 50 µM,> 50 µM,–
"O=C(CCCl)Nc1cccc(-c2cnc3ccccc3n2)c1 [Example 19, 3-chloro-N-[3-(quinoxalin-2-yl)phenyl]propanamide]",> 50 µM,–,> 50 µM,> 50 µM,> 50 µM
"CN1CCN(CC(=O)Nc2cccc(-c3cnc4ccccc4n3)c2)CC1 [Example 17, 2-(4-methylpiperazin-1-yl)-N-[3-(quinoxalin-2-yl)phenyl]acetamide]",> 50 µM,> 50 µM,> 50 µM,> 50 µM,–
"CN(C)CC(=O)Nc1cccc(-c2cnc3ccccc3n2)c1 [Example 2, N^2,N^2-dimethyl-N^1-(3-quinoxalin-2-ylphenyl)glycinamide]",> 50 µM,> 50 µM,> 50 µM,> 50 µM,–
"O=C(Nc1cccc(-c2cnc3ccccc3n2)c1)c1ccco1 [Example 12, N-[3-(quinoxalin-2-yl)phenyl]furan-2-carboxamide]",> 50 µM,24.6 µM,> 50 µM,> 50 µM,–
"C=CCC(=O)Nc1cccc(-c2cnc3ccccc3n2)c1 [Example 23, N-(3-(quinoxalin-2-yl)phenyl)but-3-enamide]",> 10 µM,> 10 µM,> 10 µM,> 10 µM,–
"O=C(CN1CCOCC1)Nc1cccc(-c2cnc3ccccc3n2)c1 [Example 20, 2-morpholino-N-(3-(quinoxalin-2-yl)phenyl)acetamide]",34 µM,> 50 µM,> 50 µM,> 50 µM,–
"CCC(=O)Nc1cccc(-c2cnc3ccccc3n2)c1 [Example 6, N-[3-(quinoxalin-2-yl)phenyl]propionamide]",> 50 µM,–,> 50 µM,> 50 µM,> 50 µM
"COc1ccc(NC(=O)Nc2cccc(-c3cnc4ccccc4n3)c2)cc1 [Example 10, 1-(4-methoxyphenyl)-3-[3-(quinoxalin-2-yl)phenyl]urea]",> 50 µM,> 50 µM,> 50 µM,> 50 µM,–
1-methyl-3-[3-(quinoxalin-2-yl)phenyl]thiourea [Example 11],> 50 µM,–,> 50 µM,> 50 µM,25.5 µM
"O=C(CN1CCCC1)Nc1cccc(-c2cnc3ccccc3n2)c1 [Example 3, 2-pyrrolidin-1-yl-N-(3-quinoxalin-2-ylphenyl)acetamide]",> 20 µM,> 20 µM,> 20 µM,> 20 µM,–
N-[3-(quinoxalin-2-yl)phenyl]cyclopropanecarboxamide [Example 14],> 50 µM,–,> 50 µM,> 50 µM,–
"O=C(CCCCl)Nc1cccc(-c2cnc3ccccc3n2)c1 [Example 5, 4-chloro-N-[3-(quinoxalin-2-yl)phenyl]butanamide]",> 50 µM,> 50 µM,> 50 µM,> 50 µM,–
"C=CC(=O)Nc1cccc(-c2cnc3ccccc3n2)c1 [Example 22, N-(3-(quinoxalin-2-yl)phenyl)acrylamide]",0.045 µM,–,> 10 µM,> 10 µM,> 10 µM
"CS(=O)(=O)Nc1cccc(-c2cnc3ccccc3n2)c1 [Example 15, N-[3-(quinoxalin-2-yl)phenyl]methanesulfonamide]",> 50 µM,18.5 µM,> 50 µM,> 50 µM,–
"O=C(Nc1cccc(-c2cnc3ccccc3n2)c1)C(Cl)Cl [Example 18, 2,2-dichloro-N-[3-(quinoxalin-2-yl)phenyl]acetamide]",0.5 µM,–,> 10 µM,> 10 µM,> 10 µM
"CSCC(=O)Nc1cccc(-c2cnc3ccccc3n2)c1 [Example 25, 2-(methylthio)-N-(3-(quinoxalin-2-yl)phenyl)acetamide]",> 10 µM,> 10 µM,> 10 µM,> 10 µM,–
"O=S(=O)(Nc1cccc(-c2cnc3ccccc3n2)c1)c1cccs1 [Example 13, N-[3-(quinoxalin-2-yl)phenyl]thiophene-2-sulfonamide]",> 50 µM,–,> 50 µM,> 50 µM,55.5 µM
2-[4-(4-chlorophenyl)piperazin-1-yl]-N-(3-(quinoxalin-2-yl)phenyl)acetamide [Example 4],2.7 µM,–,> 20 µM,> 20 µM,> 20 µM
"CC(Cl)C(=O)Nc1cccc(-c2cnc3ccccc3n2)c1 (centres unmarked) [Example 21, 2-chloro-N-(3-(quinoxalin-2-yl)phenyl)propanamide]",0.33 µM,–,> 50 µM,> 50 µM,> 50 µM

# Continued, values first:
IC50 [1],IC50 [2],IC50 [3],IC50 [4],IC50 [5],Compound
> 10 µM,–,> 10 µM,> 10 µM,–,"CC(Nc1cccc(-c2cnc3ccccc3n2)c1)=C1CCOC1=O (racemic) [Example 31, (E/Z)-3-(1-(3-(quinoxalin-2-yl)phenylamino)ethylidene)dihydrofuran-2(3H)-one]"
> 10 µM,–,> 10 µM,> 10 µM,> 10 µM,"O=C(CO)Nc1cccc(-c2cnc3ccccc3n2)c1 [Example 29, 2-hydroxy-N-(3-(quinoxalin-2-yl)phenyl)acetamide]"
0.0006 µM,> 10 µM,> 10 µM,> 10 µM,–,"CS(=O)(=O)OCC(=O)Nc1cccc(-c2cnc3ccccc3n2)c1 [Example 27, 2-oxo-2-(3-(quinoxalin-2-yl)phenylamino)ethyl methanesulfonate]"
> 10 µM,> 10 µM,> 10 µM,> 10 µM,–,"CCOC(=O)CC(=O)Nc1cccc(-c2cnc3ccccc3n2)c1 [Example 32, ethyl 3-oxo-3-(3-(quinoxalin-2-yl)phenylamino)propanoate]"
13 µM,> 20 µM,> 20 µM,> 20 µM,–,"O=C(CN1CCNCC1)Nc1cccc(-c2cnc3ccccc3n2)c1 [Example 35, 2-(piperazin-1-yl)-N-(3-(quinoxalin-2-yl)phenyl)acetamide]"
> 10 µM,> 10 µM,> 10 µM,> 10 µM,–,"CC(=O)SCC(=O)Nc1cccc(-c2cnc3ccccc3n2)c1 [Example 30, S-2-oxo-2-(3-(quinoxalin-2-yl)phenylamino)ethyl ethanethioate]"
> 10 µM,–,> 10 µM,> 10 µM,> 10 µM,"O=C(CN1CCC(O)CC1)Nc1cccc(-c2cnc3ccccc3n2)c1 [Example 34, 2-(4-hydroxypiperidin-1-yl)-N-(3-(quinoxalin-2-yl)phenyl)acetamide]"
> 10 µM,> 10 µM,> 10 µM,> 10 µM,–,"O=C(CN1CCN(c2ccncc2)CC1)Nc1cccc(-c2cnc3ccccc3n2)c1 [Example 33, 2-(4-(pyridin-4-yl)piperazin-1-yl)-N-(3-(quinoxalin-2-yl)phenyl)acetamide]"
150 µM,> 10 µM,> 10 µM,> 10 µM,–,"CC(=O)OCC(=O)Nc1cccc(-c2cnc3ccccc3n2)c1 [Example 28, 2-oxo-2-(3-(quinoxalin-2-yl)phenylamino)ethyl acetate]"
> 10 µM,> 10 µM,> 10 µM,> 10 µM,–,"O=C(CC(=O)C(F)(F)F)Nc1cccc(-c2cnc3ccccc3n2)c1 [Example 26, 4,4,4-trifluoro-3-oxo-N-(3-(quinoxalin-2-yl)phenyl)butanamide]"
> 10 µM,> 10 µM,> 10 µM,> 10 µM,–,"NS(=O)(=O)CCC(=O)Nc1cccc(-c2cnc3ccccc3n2)c1 [Example 36, 3-(aminosulfonyl)-N-[3-(2-quinoxalinyl)phenyl]propanamide]"
